In PubChem BioAssay AID256 (DTP/NCI, 2004):
Toxic doses and inconclusive results are not listed.

Tested on: CD2F1 mice, L1210 leukemia ip, survival T/C
Experiment: NCI In Vivo Anticancer Drug Screen. Data for tumor model L1210 Leukemia (intraperitoneal) in CD2F1 (CDF1) mice
Conditions: endpoint: mean survival time, higher = longer survival
Procedure, shortened: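 Antitumor effect is scored in animals hosting a serially transplanted tumor. Values compare compound-dosed animals against vehicle-only controls as a simple quotient.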

[1] = dose: 100.0 mg/kg/injection, schedule: Q01DX009 (ip), vehicle: saline with Tween-80
[2] = dose: 200.0 mg/kg/injection, schedule: Q01DX009 (ip), vehicle: saline with Tween-80
[3] = dose: 100.0 mg/kg/injection, schedule: Q04DX002 (ip), vehicle: saline with Tween-80
[4] = dose: 200.0 mg/kg/injection, schedule: Q04DX002 (ip), vehicle: saline with Tween-80
[5] = dose: 400.0 mg/kg/injection, schedule: Q04DX002 (ip), vehicle: saline with Tween-80
[6] = dose: 100.0 mg/kg/injection, schedule: Q01DX001 (ip), vehicle: saline with Tween-80
[7] = dose: 200.0 mg/kg/injection, schedule: Q01DX001 (ip), vehicle: saline with Tween-80
[8] = dose: 400.0 mg/kg/injection, schedule: Q01DX001 (ip), vehicle: saline with Tween-80

## CS(=O)(=O)OCCC(=O)N1CCN(C(=O)CCOS(C)(=O)=O)CC1
dose: 4.0 mg/kg/injection, schedule: Q03HX024 (oral), vehicle: saline
  T/C: 97 % of control
dose: 8.0 mg/kg/injection, schedule: Q03HX008 (ip), vehicle: saline
  T/C: 120 % of control
dose: 8.0 mg/kg/injection, schedule: Q03HX008 (oral), vehicle: saline
  T/C: 93 % of control
dose: 8.0 mg/kg/injection, schedule: Q03HX016 (oral), vehicle: saline
  T/C: 94 % of control
dose: 8.0 mg/kg/injection, schedule: Q03HX024 (oral), vehicle: saline
  T/C: 100 % of control
dose: 16.0 mg/kg/injection, schedule: Q01DX009 (oral), vehicle: saline
  T/C: 101 % of control
dose: 16.0 mg/kg/injection, schedule: Q03HX008 (oral), vehicle: saline
  T/C: 96 % of control
dose: 16.0 mg/kg/injection, schedule: Q03HX016 (ip), vehicle: saline
  T/C: 169 % of control
dose: 16.0 mg/kg/injection, schedule: Q03HX016 (oral), vehicle: saline
  T/C: 100 % of control
dose: 16.0 mg/kg/injection, schedule: Q03HX024 (ip), vehicle: saline
  T/C: 200 % of control
dose: 16.0 mg/kg/injection, schedule: Q03HX024 (oral), vehicle: saline
  T/C: 109 % of control
dose: 32.0 mg/kg/injection, schedule: Q01DX009 (ip), vehicle: saline
  T/C: 165 % of control
dose: 32.0 mg/kg/injection, schedule: Q01DX009 (oral), vehicle: saline
  T/C: 103 % of control
dose: 32.0 mg/kg/injection, schedule: Q03HX008 (ip), vehicle: saline
  T/C: 182 % of control
dose: 32.0 mg/kg/injection, schedule: Q03HX008 (oral), vehicle: saline
  T/C: 102 % of control
dose: 32.0 mg/kg/injection, schedule: Q03HX016 (ip), vehicle: saline
  T/C: 207 % of control
dose: 32.0 mg/kg/injection, schedule: Q03HX016 (oral), vehicle: saline
  T/C: 95 % of control
dose: 32.0 mg/kg/injection, schedule: Q03HX024 (ip), vehicle: saline
  T/C: 168 % of control
dose: 32.0 mg/kg/injection, schedule: Q03HX024 (oral), vehicle: saline
  T/C: 114 % of control
dose: 32.0 mg/kg/injection, schedule: Q04DX003 (oral), vehicle: saline
  T/C: 100 % of control
dose: 64.0 mg/kg/injection, schedule: Q01DX001 (oral), vehicle: saline
  T/C: 98 % of control
dose: 64.0 mg/kg/injection, schedule: Q01DX009 (ip), vehicle: saline
  T/C: 208 % of control
dose: 64.0 mg/kg/injection, schedule: Q01DX009 (oral), vehicle: saline
  T/C: 105 % of control
dose: 64.0 mg/kg/injection, schedule: Q03HX008 (oral), vehicle: saline
  T/C: 106 % of control
dose: 64.0 mg/kg/injection, schedule: Q03HX016 (ip), vehicle: saline
  T/C: 103 % of control
dose: 64.0 mg/kg/injection, schedule: Q03HX016 (oral), vehicle: saline
  T/C: 97 % of control
dose: 64.0 mg/kg/injection, schedule: Q04DX003 (oral), vehicle: saline
  T/C: 105 % of control
dose: 64.0 mg/kg/injection, schedule: Q08DX002 (oral), vehicle: saline
  T/C: 92 % of control
dose: 128.0 mg/kg/injection, schedule: Q01DX001 (oral), vehicle: saline
  T/C: 98 % of control
dose: 128.0 mg/kg/injection, schedule: Q01DX009 (ip), vehicle: saline
  T/C: 124 % of control
dose: 128.0 mg/kg/injection, schedule: Q01DX009 (oral), vehicle: saline
  T/C: 110 % of control
dose: 128.0 mg/kg/injection, schedule: Q04DX003 (ip), vehicle: saline
  T/C: 193 % of control
dose: 128.0 mg/kg/injection, schedule: Q04DX003 (oral), vehicle: saline
  T/C: 95 % of control
dose: 128.0 mg/kg/injection, schedule: Q08DX002 (ip), vehicle: saline
  T/C: 194 % of control
dose: 128.0 mg/kg/injection, schedule: Q08DX002 (oral), vehicle: saline
  T/C: 90 % of control
dose: 256.0 mg/kg/injection, schedule: Q01DX001 (ip), vehicle: saline
  T/C: 166 % of control
dose: 256.0 mg/kg/injection, schedule: Q01DX001 (oral), vehicle: saline
  T/C: 94 % of control
dose: 256.0 mg/kg/injection, schedule: Q01DX009 (oral), vehicle: saline
  T/C: 110 % of control
dose: 256.0 mg/kg/injection, schedule: Q04DX003 (ip), vehicle: saline
  T/C: 181 % of control
dose: 256.0 mg/kg/injection, schedule: Q04DX003 (oral), vehicle: saline
  T/C: 100 % of control
dose: 256.0 mg/kg/injection, schedule: Q08DX002 (ip), vehicle: saline
  T/C: 228 % of control
dose: 256.0 mg/kg/injection, schedule: Q08DX002 (oral), vehicle: saline
  T/C: 96 % of control
dose: 512.0 mg/kg/injection, schedule: Q01DX001 (ip), vehicle: saline
  T/C: 89 % of control
dose: 512.0 mg/kg/injection, schedule: Q01DX001 (oral), vehicle: saline
  T/C: 96 % of control
dose: 512.0 mg/kg/injection, schedule: Q04DX003 (ip), vehicle: saline
  T/C: 103 % of control
dose: 512.0 mg/kg/injection, schedule: Q08DX002 (oral), vehicle: saline
  T/C: 94 % of control

## O=C(O)CCCC(=O)c1ccccc1
dose: 50.0 mg/kg/injection, schedule: Q01DX009 (ip), vehicle: Klucel (hydroxypropylcellulose) (HPC)
  T/C: 91 % of control
dose: 100.0 mg/kg/injection, schedule: Q01DX009 (ip), vehicle: Klucel (hydroxypropylcellulose) (HPC)
  T/C: 91 % of control
dose: 200.0 mg/kg/injection, schedule: Q01DX009 (ip), vehicle: Klucel (hydroxypropylcellulose) (HPC)
  T/C: 95 % of control

## CC1CN(CCC#N)C(=O)S1(=O)=O (stereo not given)
dose: 75.0 mg/kg/injection, schedule: Q01DX001 (ip), vehicle: other
  T/C: 108 % of control

## COc1cccc(CCNC(=O)CCN2C(=O)CCC2=O)c1
[1]
  T/C: 98 % of control
dose: 100.0 mg/kg/injection, schedule: Q04DX003 (ip), vehicle: saline sonified
  T/C: 101 % of control
[2]
  T/C: 93 % of control
dose: 200.0 mg/kg/injection, schedule: Q04DX003 (ip), vehicle: saline sonified
  T/C: 98 % of control
dose: 400.0 mg/kg/injection, schedule: Q01DX009 (ip), vehicle: saline with Tween-80
  T/C: 100 % of control
dose: 400.0 mg/kg/injection, schedule: Q04DX003 (ip), vehicle: saline sonified
  T/C: 104 % of control

## COc1cc(Br)c(CC2c3cc(OC)c(OC)cc3CCN2C)cc1OC (stereo not given)
dose: 100.0 mg/kg/injection, schedule: Q01DX001 (ip), vehicle: saline
  T/C: 101 % of control
dose: 200.0 mg/kg/injection, schedule: Q01DX001 (ip), vehicle: saline
  T/C: 101 % of control

## CCOC(=O)NCC1CCC(CO)CC1 (stereo not given)
[3]
  T/C: 95 % of control
[4]
  T/C: 117 % of control
[5]
  T/C: 98 % of control

## CS(=O)(=O)Cc1cnc(N)nc1-c1ccccc1
[6]
  T/C: 94 % of control
[7]
  T/C: 97 % of control
[8]
  T/C: 94 % of control

## O=[N+]([O-])c1ccc2nc3ccscc-3c2c1
dose: 100.0 mg/kg/injection, schedule: Q01DX001 (ip), vehicle: acetone
  T/C: 100 % of control
dose: 200.0 mg/kg/injection, schedule: Q01DX001 (ip), vehicle: acetone
  T/C: 100 % of control
dose: 400.0 mg/kg/injection, schedule: Q01DX001 (ip), vehicle: acetone
  T/C: 92 % of control

## CCNC(=O)OC(C)C
[3]
  T/C: 90 % of control
[4]
  T/C: 102 % of control
[5]
  T/C: 94 % of control

## O=C(CCN1CC1)Nc1ccc(NC(=O)CCN2CC2)cc1
dose: 5.0 mg/kg/injection, schedule: Q04DX003 (ip), vehicle: Klucel (hydroxypropylcellulose) (HPC)
  T/C: 106 % of control
dose: 80.0 mg/kg/injection, schedule: Q04DX003 (ip), vehicle: Klucel (hydroxypropylcellulose) (HPC)
  T/C: 115 % of control

## Cc1ccc(Sc2cccc3c2C(=O)c2c(Sc4ccc(C)cc4)cccc2C3=O)cc1
[1]
  T/C: 93 % of control
[2]
  T/C: 86 % of control

## CCOP(=O)(OCC)C(C#N)Cc1ccccc1OC (stereo not given)
dose: 100.0 mg/kg/injection, schedule: Q04DX003 (ip), vehicle: saline
  T/C: 98 % of control
dose: 200.0 mg/kg/injection, schedule: Q04DX003 (ip), vehicle: saline
  T/C: 101 % of control

## Cc1ccc(S(=O)(=O)C2C=CC=CC=C2)cc1
dose: 25.0 mg/kg/injection, schedule: Q01DX009 (ip), vehicle: saline with Tween-80
  T/C: 98 % of control
dose: 50.0 mg/kg/injection, schedule: Q01DX009 (ip), vehicle: saline with Tween-80
  T/C: 98 % of control
[1]
  T/C: 94 % of control

## CSCC1CCCCC12OCCO2 (stereo not given)
[6]
  T/C: 104 % of control
[7]
  T/C: 96 % of control
[8]
  T/C: 96 % of control

## O=C(O)c1ccc(CCCBr)cc1
dose: 100.0 mg/kg/injection, schedule: Q04DX003 (ip), vehicle: other
  T/C: 107 % of control
dose: 200.0 mg/kg/injection, schedule: Q04DX003 (ip), vehicle: other
  T/C: 106 % of control
dose: 400.0 mg/kg/injection, schedule: Q04DX003 (ip), vehicle: other
  T/C: 101 % of control
